Data: patent US20020132812A1, “Oral hypoglycaemic agents” (priority 2000, published 2002)

System: rat pancreatic α-cells
Test: Ca2+-dependent exocytosis (cell capacitance) in single rat pancreatic α-cells
Assay type: cell-based
Protocol: Male Lewis rats (250-300 g; Møllegaard, Lille Skensved, Denmark) were anaesthetised by pentobarbital (100 mg/kg i.p.). After removal of the pancreas, islets were isolated by collagenase digestion and dispersed into single cells using dispase (Sigma). The α-cells were then separated by fluorescence-activated cell sorting as described elsewhere (Josefsen et al. J. Endocrinol., Vol.149, pp.145-154, 1996). Based on the hormone contents and their glucose sensitivities, we estimate that the preparation contains >80% α-cells and <3% β-cells. […]
Patch pipettes were drawn from borosilicate glass capillaries. […] The currents were recorded using an Axopatch 200B patch clamp amplifier (Axon Instruments, Foster City, Calif., USA), digitized and stored in a computer using the Digidata AD-converter and the software pClamp (version 6.0; Axon Instruments). Alternatively, KATP-currents were recorded using an EPC-9 patch clamp amplifier and the Pulse software (v. 8.01; HEKA Elektronik, Lamprecht/Pfalz, Germany). Exocytosis was monitored as increases in cell membrane capacitance (Neher & Marty Proc. Natl. Acad, Sci. USA, Vol. 79, pp. 6712-6716,1982) using the standard whole-cell configuration of the patch-clamp technique and an EPC-9 patch-clamp amplifier and the Pulse software (v. 8.01; HEKA Elektronik). […]

COc1cccc(C(CC2=NCCN2)c2ccccn2)c1 (single isomer, unassigned; (-)) [compound (Ex 2), (−)-2-(2-(4,5-Dihydro-1H-imidazol-2-yl)-1-(3-methoxyphenyl)ethyl)pyridine]
rate of exocytosis (ΔCm/Δt) measured over the first 60 s after establishment of the whole-cell configuration (100 μM compound in pipette solution, free Ca2+ 2 μM, control 16.8±2.5 fF/s, n=5): 4.6±0.7 fF/s | effect on Ca2+-dependent exocytosis (in words) (0.1 mM compound, Ca2+ 2 μM): strong inhibition of the exocytotic response
